Test results reported in US4221907A, “Substituted O-α-D and O-β-D-multi-galactopyranosyl and glucopyranosyl 1→4 and 1→6 galactopyranosyl 1→6 α-D-glucopyranoses” (American Cyanamid Company, priority 1979, dated 1980).
Structures can show the parent of a compound that is named as a salt.

Key:
[1] = test system: total hemolytic complement activity; settings: in vitro and in vivo, as judged by reduction in total hemolytic complement activity; cited from earlier work
human C1 = human C1 (Homo sapiens, UniProt P09871); experiment: Test Code 026 (C1 inhibitor): activated human C1 destroys fluid phase human C2 in presence of C4; assay type: biochemical; settings: activity in wells, twofold serial dilution; higher well number indicates higher activity
Text: (§1) An active inhibitor protects C2 from C1 and C4; (ii) Test Code 035 (C3-C9 inhibitor)--This test determines the ability of the late components of human complement (C3-C9) to lyse EAC 142 in the presence of appropriate dilutions of the test compound. An active inhibitor protects EAC 142 from lysis by human C3-C9; (iii) Test Code 036 (C-Shunt inhibitor)--In this test human erythrocytes rendered fragile are lysed in autologous serum via the shunt pathway activated by cobra venom factor in the presence of appropriate dilutions of the test compound. Inhibition of the shunt pathway results in failure of lysis; (iv) Forssman Vasculitis Test--Here, the well known complement dependent lesion, Forssman vasculitis, is produced in guinea pigs by intradermal injection of rabbit anti-Forssman antiserum. The lesion is measured in terms of diameter, edema and hemorrhage and the extent to which a combined index of these is inhibited by prior intraperitoneal injection of the test compound at 200 mg/kg is then reported, unless otherwise stated; (v) Forssman Shock Test--Lethal shock is produced in guinea pigs by an i.v. injection of anti-Forssman antiserum and the harmonic mean death time of treated guinea pigs is compared with that of the simultaneous controls; (vi) Complement Level Reduction Test--In this test, the above dosed guinea pigs, or others are bled for serum and the complmenet level is determined in undiluted serum by the capillary tube method of U.S. Pat. No. 3,876,376 and compared to undosed control guinea pigs; (vii) Cap 50 Test--Here, appropriate amounts of the test compound are added to a pool of guinea pig serum in vitro, after which the undiluted serum capillary tube assay referred to above is run. The concentration of compound inhibiting 50% is reported.
(§2) **Activity in wells, a serial dilution assay; higher well number indicate
(§3) higher activity. The serial dilutions are twofold-

human complement (C3-C9) = experiment: Test Code 035 (C3-C9 inhibitor): lysis of EAC 142 by late components of human complement; assay type: biochemical; settings: activity in wells, twofold serial dilution; higher well number indicates higher activity
Text: as §1, §2, §3

shunt pathway = experiment: Test Code 036 (C-Shunt inhibitor): lysis of human erythrocytes in autologous serum via shunt pathway activated by cobra venom factor; assay type: biochemical; settings: activity in wells, twofold serial dilution; higher well number indicates higher activity
Text: as §1, §2, §3

whole complement = experiment: In vivo activity (Guinea Pig): serum whole complement by capillary tube assay after dosing; settings: Intraperitoneal, 200 mg/kg
complement system = settings: reported, British Journal of Experimental Pathology, 33, 327-339 (1952); cited from earlier work
[2] = test system: hereditary angio-neurotic edema; settings: reported in the literature; cited from earlier work

Chain of human C1 (P09871 16-688): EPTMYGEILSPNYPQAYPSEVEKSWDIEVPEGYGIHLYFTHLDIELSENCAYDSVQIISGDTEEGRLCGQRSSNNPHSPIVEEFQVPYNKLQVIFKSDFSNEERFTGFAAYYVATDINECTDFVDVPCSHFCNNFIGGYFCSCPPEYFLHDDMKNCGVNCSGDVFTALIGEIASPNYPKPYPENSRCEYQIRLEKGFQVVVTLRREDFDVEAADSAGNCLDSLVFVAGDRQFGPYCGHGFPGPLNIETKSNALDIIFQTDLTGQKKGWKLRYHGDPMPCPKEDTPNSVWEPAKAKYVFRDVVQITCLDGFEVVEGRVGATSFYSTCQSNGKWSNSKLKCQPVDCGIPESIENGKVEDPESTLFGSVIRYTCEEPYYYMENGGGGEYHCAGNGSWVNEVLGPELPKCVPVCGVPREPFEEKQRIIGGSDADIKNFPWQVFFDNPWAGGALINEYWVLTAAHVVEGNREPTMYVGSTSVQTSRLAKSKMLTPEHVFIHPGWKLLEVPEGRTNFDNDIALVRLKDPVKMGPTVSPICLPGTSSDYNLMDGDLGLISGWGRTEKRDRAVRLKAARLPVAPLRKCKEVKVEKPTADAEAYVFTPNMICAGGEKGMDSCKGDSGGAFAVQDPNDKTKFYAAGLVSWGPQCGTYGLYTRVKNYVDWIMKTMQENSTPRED
Chain of human C1 (P00736 18-705 partner): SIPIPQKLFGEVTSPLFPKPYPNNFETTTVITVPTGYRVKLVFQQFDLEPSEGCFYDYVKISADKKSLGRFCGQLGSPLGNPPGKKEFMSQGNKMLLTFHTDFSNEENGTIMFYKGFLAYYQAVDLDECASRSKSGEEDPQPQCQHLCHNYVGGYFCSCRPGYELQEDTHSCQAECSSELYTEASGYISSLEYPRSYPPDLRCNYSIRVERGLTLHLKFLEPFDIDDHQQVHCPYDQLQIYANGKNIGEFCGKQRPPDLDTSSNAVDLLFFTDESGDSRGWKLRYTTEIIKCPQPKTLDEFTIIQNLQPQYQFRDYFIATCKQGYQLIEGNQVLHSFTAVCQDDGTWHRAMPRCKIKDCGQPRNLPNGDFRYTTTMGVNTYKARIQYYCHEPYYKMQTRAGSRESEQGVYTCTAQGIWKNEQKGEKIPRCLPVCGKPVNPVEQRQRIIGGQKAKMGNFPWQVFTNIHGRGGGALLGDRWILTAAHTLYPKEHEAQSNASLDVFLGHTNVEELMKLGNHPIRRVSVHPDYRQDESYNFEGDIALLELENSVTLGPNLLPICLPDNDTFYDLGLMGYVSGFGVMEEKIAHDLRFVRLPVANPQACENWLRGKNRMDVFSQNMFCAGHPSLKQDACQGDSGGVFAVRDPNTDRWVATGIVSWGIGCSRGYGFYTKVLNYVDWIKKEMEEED
Chain of human C1 (P02745 23-245 partner): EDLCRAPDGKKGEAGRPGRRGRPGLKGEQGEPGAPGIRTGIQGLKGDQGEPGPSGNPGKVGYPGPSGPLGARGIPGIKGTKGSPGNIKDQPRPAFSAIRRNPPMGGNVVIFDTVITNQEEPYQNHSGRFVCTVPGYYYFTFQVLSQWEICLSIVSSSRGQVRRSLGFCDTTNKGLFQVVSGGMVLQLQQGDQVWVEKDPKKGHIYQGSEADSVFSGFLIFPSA
Chain of human C1 (P02746 28-253 partner): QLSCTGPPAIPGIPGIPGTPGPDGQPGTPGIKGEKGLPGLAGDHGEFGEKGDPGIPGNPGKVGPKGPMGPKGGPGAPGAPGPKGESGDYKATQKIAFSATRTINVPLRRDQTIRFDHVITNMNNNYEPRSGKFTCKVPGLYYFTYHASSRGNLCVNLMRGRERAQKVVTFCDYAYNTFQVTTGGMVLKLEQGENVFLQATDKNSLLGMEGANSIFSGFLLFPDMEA
Chain of human C1 (P02747 29-245 partner): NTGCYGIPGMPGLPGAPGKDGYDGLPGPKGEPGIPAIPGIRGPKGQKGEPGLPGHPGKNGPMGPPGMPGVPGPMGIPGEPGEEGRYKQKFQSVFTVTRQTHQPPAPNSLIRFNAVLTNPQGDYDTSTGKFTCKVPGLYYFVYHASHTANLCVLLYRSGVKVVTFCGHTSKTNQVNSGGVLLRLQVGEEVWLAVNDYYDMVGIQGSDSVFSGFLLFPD

Molecule | C1 026 Wells (human C1) | C-Late 035 Wells (human complement (C3-C9)) | Shunt Inhibition 036 Wells (shunt pathway) | also measured
pentosan-polysulfoester |  |  |  | anticomplementary activity on human serum [1]: anticomplementary activity on human serum, both in vitro and in vivo
O=S(=O)(O)OC[C@H]1O[C@H](OC[C@H]2O[C@@H](OC[C@H]3O[C@H](OC[C@H]4O[C@H](OS(=O)(=O)O)[C@H](OS(=O)(=O)O)[C@@H](OS(=O)(=O)O)[C@@H]4OS(=O)(=O)O)[C@H](OS(=O)(=O)O)[C@@H](OS(=O)(=O)O)[C@H]3OS(=O)(=O)O)[C@H](OS(=O)(=O)O)[C@@H](OS(=O)(=O)O)[C@@H]2OS(=O)(=O)O)[C@H](OS(=O)(=O)O)[C@@H](OS(=O)(=O)O)[C@H]1OS(=O)(=O)O [drawing 9, O-α-D-galactopyranosyl(1→6)-O-β-D-glucopyranosyl(1→6)-O-α-D-galactopyranosyl(1→6)-α-D-glucopyranose [gal 1α,6 glc 1β,6 gal 1α,6 glc] tetradecakis (H-sulfate), tetradecasodium salt] | +9 Wells | +1 Wells | +6 Wells | In vivo Activity (Guinea Pig) % Inhibition (whole complement; 30 min): -44%; In vivo Activity (Guinea Pig) % Inhibition (whole complement; 60 min): -55%; In vivo Activity (Guinea Pig) % Inhibition (whole complement; 120 min): -80%
heparin |  |  |  | anticomplementary effect (complement system): anticomplementary effect
Nc1ccc2cc(S(=O)(=O)[O-])cc(O)c2c1N=Nc1ccc(NC(=O)Nc2ccc(N=Nc3c(N)ccc4cc(S(=O)(=O)[O-])cc(O)c34)c(S(=O)(=O)[O-])c2)cc1S(=O)(=O)[O-].[Na+].[Na+].[Na+].[Na+] [chlorazol fast pink, 3,3'-ureylenebis[6-(2-amino-8-hydroxy-6-sulfo-1-naphthylazo)benzenesulfonic acid], tetrasodium salt] |  |  |  | anticomplementary effect (complement system): anticomplementary effect
NCCCCCC(=O)O [epsilon-aminocaproic acid] |  |  |  | treatment of hereditary angio-neurotic edema [2]: used with success
O=S(=O)(O)OC[C@H]1O[C@@H](OC[C@H]2O[C@H](OC[C@H]3OC(OS(=O)(=O)O)[C@H](OS(=O)(=O)O)[C@@H](OS(=O)(=O)O)[C@@H]3OS(=O)(=O)O)[C@H](OS(=O)(=O)O)[C@@H](OS(=O)(=O)O)[C@H]2OS(=O)(=O)O)[C@H](OS(=O)(=O)O)[C@@H](OS(=O)(=O)O)[C@@H]1O[C@H]1O[C@H](COS(=O)(=O)O)[C@@H](OS(=O)(=O)O)[C@H](OS(=O)(=O)O)[C@H]1OS(=O)(=O)O (stereo partly drawn) [drawing 10, O-α-D-glucopyranosyl(1→4)-O-β-D-glucopyranosyl(1→6)-O-α-D-galactopyranosyl(1→6)-D-glucopyranose [glc 1α,4 glc 1β,6 gal 1α,6 glc] tetradecakis (H-sulfate), tetradecasalt with trimethylamine] | +9 Wells | +1 Wells | +5 Wells | 
NC[C@H]1CC[C@H](C(=O)O)CC1 [tranexamic acid] |  |  |  | treatment of hereditary angio-neurotic edema [2]: used with success
O=S(=O)(O)OC[C@H]1O[C@@H](OC[C@H]2O[C@H](OC[C@H]3OC(OS(=O)(=O)O)[C@H](OS(=O)(=O)O)[C@@H](OS(=O)(=O)O)[C@@H]3OS(=O)(=O)O)[C@H](OS(=O)(=O)O)[C@@H](OS(=O)(=O)O)[C@H]2OS(=O)(=O)O)[C@H](OS(=O)(=O)O)[C@@H](OS(=O)(=O)O)[C@@H]1O[C@H]1O[C@H](COS(=O)(=O)O)[C@@H](OS(=O)(=O)O)[C@H](OS(=O)(=O)O)[C@H]1OS(=O)(=O)O (stereo partly drawn) [drawing 11, O-α-D-glucopyranosyl(1→4)-O-β-D-glucopyranosyl(1→6)-O-α-D-galactopyranosyl(1→6)-D-glucopyranose [glc 1α,4 glc 1β,6 gal 1α,6 glc] tetradecakis (H-sulfate), tetradecasodium salt] | +10 Wells | +1 Wells | +6 Wells | In vivo Activity (Guinea Pig) % Inhibition (whole complement; 30 min): -54%; In vivo Activity (Guinea Pig) % Inhibition (whole complement; 60 min): -45%; In vivo Activity (Guinea Pig) % Inhibition (whole complement; 120 min): -39%
O=S(=O)(O)OC[C@H]1O[C@H](OC[C@H]2O[C@@H](OC[C@H]3O[C@H](OC[C@H]4O[C@H](OS(=O)(=O)O)[C@H](OS(=O)(=O)O)[C@@H](OS(=O)(=O)O)[C@@H]4OS(=O)(=O)O)[C@H](OS(=O)(=O)O)[C@@H](OS(=O)(=O)O)[C@H]3OS(=O)(=O)O)[C@H](OS(=O)(=O)O)[C@@H](OS(=O)(=O)O)[C@@H]2OS(=O)(=O)O)[C@H](OS(=O)(=O)O)[C@@H](OS(=O)(=O)O)[C@H]1OS(=O)(=O)O [drawing 8, O-α-D-galactopyranosyl(1→6)-O-β-D-glucopyranosyl(1→6)-O-α-D-galactopyranosyl(1→6)-α-D-glucopyranose [gal 1α,6 glc 1β,6 gal 1α,6 glc] tetradecakis (H-sulfate), tetradecasalt with trimethylamine] | +9 Wells | +1 Wells | +5 Wells | 
